PMC6886798, “Expression of myeloid Src-family kinases is associated with poor prognosis in AML and influences Flt3-ITD kinase inhibitor acquired resistance” (PLoS ONE, 2019)
Read-outs that look alike come from different tables or passages of the source.

Key:
[1] = target: T1, Flt3-D835Y kinase domain (Homo sapiens, UniProt P36888, D835Y); assay: Z'-LYTE in vitro kinase assay; type: biochemical; conditions: Flt3 D835Y mutant
T1 construct: Recombinant purified Flt3 wild-type, Flt3-ITD and Flt3-D835Y kinase domains were purchased from ThermoFisher; purchased ThermoFisher
Description: Assays were performed in quadruplicate in 384-well low volume, non-binding, black polystyrene microplates (Corning) according to the manufacturer’s instructions. Briefly, this assay measures phosphorylation of the Tyr2 peptide substrate which is tagged with coumarin and fluorescein on its N- and C-termini, respectively, to form a FRET pair. After the kinase reaction, a development step involves site-specific proteolytic cleavage of the unphosphorylated but not the phosphorylated peptide. […] Kinase reactions were run in 50 mM HEPES, pH 7.5, 10 mM MgCl2, 1 mM EGTA, and 0.01% BRIJ-35 (buffer supplied by the manufacturer). […] Following incubation for 1 h at ambient temperature, reactions were quenched by addition of the development protease, and coumarin and fluorescein fluorescence were measured 1 h later on a Molecular Devices SpectraMax M5 plate reader. […] For experiments with inhibitors, compounds were preincubated with kinase for 30 min prior to initiation of the reaction by the addition of ATP.

[2] = system: MOLM13 cells (parent); assay: CellTiter-Blue cell viability; type: cell-based, human
Description: (§1) Gibco/ThermoFisher). Parental TF-1 cells also require recombinant human GM-CSF (1 ng/mL; ThermoFisher). MOLM13 and MOLM14 cells were obtained from Leibniz Institute Deutsche Sammlung von Mikroorganismen (DSMZ) and grown in RPMI 1640 medium containing 20% FBS and Antibiotic-Antimycotic. […] Cell viability was assessed using the CellTiter-Blue reagent according to the manufacturer’s instructions (Promega). Fluorescence intensity, which correlates directly with viable cell number, was measured using a SpectraMax M5 microplate reader. Each experiment included three technical replicates per condition, and each experiment was repeated at least three times.

[3] = system: MOLM14 cells (parent); assay: CellTiter-Blue cell viability; type: cell-based, human
Description: as §1

[4] = system: MV4-11 cells (parent); assay: CellTiter-Blue cell viability; type: cell-based, human
Description: as §1

[5] = system: TF-1/FLT3-ITD + Fgr-T338L cells; assay: CellTiter-Blue cell viability; type: cell-based, human
Description: (§2) Full-length cDNA clones of each kinase were subcloned into the retroviral expression vectors pMSCV-neo or pMSCV-puro (Clontech). High-titer retroviral stocks were produced in 293T cells co-transfected with each pMSCV construct and an amphotropic packaging vector. TF-1 cells (10^6) were resuspended in 5.0 mL of undiluted viral supernatant and centrifuged at 1,000 × g for 4 h at 18 °C in the presence of 4 μg/mL Polybrene (Sigma-Aldrich) to enhance viral transduction. Forty-eight hours after infection, the cells began a two-week selection period with 400 μg/ml G-418 (neo vectors) or 3 μg/mL puromycin (puro vectors). Following selection, cells were maintained with 200 μg/ml G418 or 1 μg/mL puromycin. For double transduction experiments, TF-1 cells were first infected with the pMSCV-neo-Flt3-ITD virus, selected with G418, followed by the pMSCV-puro virus carrying Hck or Fgr and puromycin selection. All TF-1 cell populations that expressed Flt3-ITD (including inhibitor-resistant mutants) proliferated in a GM-CSF-independent manner, and were therefore subcultured in the absence of GM-CSF.
(§3) Cells were seeded at 10^5 per mL in the presence or absence of inhibitors with DMSO as carrier solvent (0.1% final). Cell viability was assessed using the CellTiter-Blue reagent according to the manufacturer’s instructions (Promega). Fluorescence intensity, which correlates directly with viable cell number, was measured using a SpectraMax M5 microplate reader. Each experiment included three technical replicates per condition, and each experiment was repeated at least three times.

[6] = system: TF-1/FLT3-ITD + Fgr-T338M cells; assay: CellTiter-Blue cell viability; type: cell-based, human
Description: as §2, §3

[7] = system: TF-1/Flt3-ITD + Fgr cells; assay: CellTiter-Blue cell viability; type: cell-based, human; conditions: Fig 3; Flt3-ITD: WT; SFK: Fgr; 72 hours; read-out: IC50, nM (growth inhibition)
Description: as §2, §3

[8] = system: TF-1/Flt3-ITD + Hck cells; assay: CellTiter-Blue cell viability; type: cell-based, human; conditions: Fig 3; Flt3-ITD: WT; SFK: Hck; 72 hours; read-out: IC50, nM (growth inhibition)
Description: as §2, §3

[9] = system: TF-1/Flt3-ITD D835Y + Hck cells; assay: CellTiter-Blue cell viability; type: cell-based, human; conditions: Fig 3, SFK: Hck, 72 hours, read-out: IC50, nM (growth inhibition)
Description: as §2, §3

[10] = system: TF-1/Flt3-ITD N676S + Fgr cells; assay: CellTiter-Blue cell viability; type: cell-based, human; conditions: S9 Fig, 48 h
Description: as §2, §3

[11] = system: TF-1/Flt3-ITD N676S + Hck cells; assay: CellTiter-Blue cell viability; type: cell-based, human; conditions: S9 Fig, 48 h
Description: as §2, §3

[12] = system: TF-1/Flt3-ITD N676S cells; assay: CellTiter-Blue cell viability; type: cell-based, human
Description: as §2, §3

[13] = system: TF-1/Flt3-ITD cells; assay: CellTiter-Blue cell viability; type: cell-based, human; conditions: 72 hours
Description: as §2, §3

[14] = system: MOLM13 R3 (A-419259-resistant population); assay: CellTiter-Blue cell viability; type: cell-based, human
Description: (§4) Cell viability was assessed using the CellTiter-Blue reagent according to the manufacturer’s instructions (Promega). Fluorescence intensity, which correlates directly with viable cell number, was measured using a SpectraMax M5 microplate reader. Each experiment included three technical replicates per condition, and each experiment was repeated at least three times. […] Viability of each cell population was measured three times per week using the CellTiter-Blue assay.

[15] = system: MOLM14 R1 (A-419259-resistant population); assay: CellTiter-Blue cell viability; type: cell-based, human
Description: as §4

[16] = system: MOLM14 R2 (A-419259-resistant population); assay: CellTiter-Blue cell viability; type: cell-based, human
Description: as §4

[17] = system: MOLM14 R3 (A-419259-resistant population); assay: CellTiter-Blue cell viability; type: cell-based, human
Description: as §4

[18] = system: MV4-11 R2 (A-419259-resistant population); assay: CellTiter-Blue cell viability; type: cell-based, human
Description: as §4

[19] = system: MV4-11 R3 (A-419259-resistant population); assay: CellTiter-Blue cell viability; type: cell-based, human
Description: as §4

[20] = target: T2, HCK (Homo sapiens, UniProt P08631); assay: KINOMEscan; type: binding; conditions: 1.0 µM
T2 construct: purchased Eurofins/DiscoverX KINOMEscan scanMAX
Description: (§5) Kinase retention to the immobilized ligand is then measured using quantitative real-time PCR for each kinase-specific DNA barcode.

[21] = target: T3, PRP4 (Homo sapiens, UniProt Q13523); assay: KINOMEscan; type: binding; conditions: 1.0 µM
T3 construct: purchased Eurofins/DiscoverX KINOMEscan scanMAX
Description: as §5

[22] = read-out: A-419259 Sensitivity (IC50, nM) Initial, mean ± SE (n = 3)
[23] = read-out: A-419259 Sensitivity (IC50, nM) Post-holiday, after 4 weeks passage in the absence of inhibitor, mean ± SE (n = 3)

T2 sequence (P08631 whole entry): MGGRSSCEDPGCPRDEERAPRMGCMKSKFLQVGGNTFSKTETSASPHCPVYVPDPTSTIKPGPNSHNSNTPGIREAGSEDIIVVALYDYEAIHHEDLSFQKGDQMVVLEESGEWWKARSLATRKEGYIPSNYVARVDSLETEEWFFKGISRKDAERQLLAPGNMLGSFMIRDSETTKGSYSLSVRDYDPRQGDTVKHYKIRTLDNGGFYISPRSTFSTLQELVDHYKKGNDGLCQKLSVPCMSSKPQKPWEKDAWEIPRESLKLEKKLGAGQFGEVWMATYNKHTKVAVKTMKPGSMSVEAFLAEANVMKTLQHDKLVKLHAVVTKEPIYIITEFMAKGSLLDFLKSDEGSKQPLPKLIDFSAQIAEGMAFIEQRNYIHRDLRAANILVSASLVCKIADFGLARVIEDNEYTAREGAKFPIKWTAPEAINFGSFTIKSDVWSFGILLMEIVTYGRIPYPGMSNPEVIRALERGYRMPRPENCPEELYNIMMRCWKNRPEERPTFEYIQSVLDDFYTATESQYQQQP
T3 sequence (Q13523 whole entry): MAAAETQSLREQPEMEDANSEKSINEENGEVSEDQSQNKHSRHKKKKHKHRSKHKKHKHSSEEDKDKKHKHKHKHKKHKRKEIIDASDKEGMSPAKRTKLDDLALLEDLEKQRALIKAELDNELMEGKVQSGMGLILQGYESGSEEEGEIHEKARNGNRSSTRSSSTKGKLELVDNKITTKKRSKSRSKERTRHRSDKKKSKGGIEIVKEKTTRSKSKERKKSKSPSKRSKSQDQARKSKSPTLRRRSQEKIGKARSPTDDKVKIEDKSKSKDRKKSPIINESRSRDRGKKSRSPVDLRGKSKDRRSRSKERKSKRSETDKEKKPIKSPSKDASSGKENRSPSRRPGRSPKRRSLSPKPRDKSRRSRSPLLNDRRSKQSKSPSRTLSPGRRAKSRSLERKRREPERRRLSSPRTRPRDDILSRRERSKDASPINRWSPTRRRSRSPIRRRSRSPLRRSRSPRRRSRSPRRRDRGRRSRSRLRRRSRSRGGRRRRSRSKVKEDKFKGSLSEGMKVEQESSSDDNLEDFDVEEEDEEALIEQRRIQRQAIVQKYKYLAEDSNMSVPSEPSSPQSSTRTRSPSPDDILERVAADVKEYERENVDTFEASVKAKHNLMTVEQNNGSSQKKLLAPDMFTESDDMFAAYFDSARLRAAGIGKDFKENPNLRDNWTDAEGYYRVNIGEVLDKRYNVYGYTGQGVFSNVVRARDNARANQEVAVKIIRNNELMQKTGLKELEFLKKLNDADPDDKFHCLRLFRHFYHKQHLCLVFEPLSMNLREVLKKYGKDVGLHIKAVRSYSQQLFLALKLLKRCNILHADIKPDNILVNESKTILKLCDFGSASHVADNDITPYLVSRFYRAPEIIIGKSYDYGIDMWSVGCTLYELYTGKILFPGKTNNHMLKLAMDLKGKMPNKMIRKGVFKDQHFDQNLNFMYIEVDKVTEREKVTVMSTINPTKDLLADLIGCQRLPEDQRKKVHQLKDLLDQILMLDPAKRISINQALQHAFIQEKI

Structure (SMILES): CN1CCN(C2CCC(n3cc(-c4ccc(Oc5ccccc5)cc4)c4c(N)ncnc43)CC2)CC1 (stereo not shown) [A-419259]
- resistance to A-419259 in in vitro kinase assays [1]: about 6 fold
- IC50 [2, 22]: 40.3 ± 9.9 nM
- IC50 [2, 23]: 38.4 ± 0.9 nM
- IC50 [3, 22]: 14.3 ± 1.5 nM
- IC50 [3, 23]: 26.4 ± 7.7 nM
- IC50 ([4]; Fig 3A, 72 hours, read-out: IC50 (cell viability)): 58 nM
- IC50 ([4]; read-out: A-419259 Sensitivity (IC50, nM) Initial, MV4-11 Parent, mean ± SE (n = 3)): 28.3 ± 3.5 nM
- IC50 ([4]; read-out: A-419259 Sensitivity (IC50, nM) Post-holiday, MV4-11 Parent, after 4 weeks passage in the absence of inhibitor, mean ± SE (n = 3)): 27.5 ± 4.3 nM
- resistance to the inhibitor in cells ([5]; Fgr T338L as printed): about 3 fold
- IC50 ([5]; Fig 6B, TF-1/FLT3-ITD + Fgr-T338L, 72 hours): > 1000 nM
- resistance to the inhibitor in cells [6]: about 3 fold
- IC50 [7]: 22.6 nM
- IC50 [8]: 15.4 nM
- IC50 [9]: > 100 nM
- IC50 [10]: 173 nM
- IC50 [11]: 129 nM
- IC50 ([12]; Fig 9A, 72 hours, read-out: IC50 (growth arrest)): 176 nM
- IC50 ([12]; S9 Fig, N676S control, 48 h, read-out: IC50 (cell viability)): 89.1 nM
- IC50 ([13]; Fig 3, Flt3-ITD: WT, SFK: none, read-out: IC50, nM (growth inhibition)): 18.2 nM
- IC50 ([13]; Fig 9A, control TF-1/Flt3-ITD cells, read-out: IC50 (growth arrest)): 26 nM
- IC50 [14, 22]: 473 ± 53.9 nM
- IC50 [14, 23]: 436 ± 107 nM
- IC50 [15, 22]: 187 ± 20.8 nM
- IC50 [15, 23]: 283 ± 84.2 nM
- IC50 [16, 22]: 193 ± 51.4 nM
- IC50 [16, 23]: 326 ± 38.4 nM
- IC50 [17, 22]: 213 ± 73.7 nM
- IC50 [17, 23]: 178 ± 46.1 nM
- IC50 [18, 22]: 410 ± 136 nM
- IC50 [18, 23]: 597 ± 76.3 nM
- IC50 [19, 22]: 125 ± 7.3 nM
- IC50 [19, 23]: 91.6 ± 15.6 nM
- % Control [20]: 1.9%
- % Control [21]: 98%
